Key:
Format in all cases: biochemical
PRMT8 = PRMT8 (Homo sapiens, UniProt Q9NR22); experiment: radioactive assay (Reaction Biology Corp.), inhibition of PRMT8
Protocol: (§1) Next, the inhibition activity of the library was investigated for five PRMT members from type I PRMTs.
(§2) The PRMT 4, 6 and 8 methylation assays were performed by Reaction Biology corp.

PRMT6 = PRMT6 (Homo sapiens, UniProt Q96LA8); experiment: radioactive assay (Reaction Biology Corp.), inhibition of PRMT6
Protocol: as §1, §2

PRMT1 = target: T1, PRMT1 (Homo sapiens, UniProt Q99873); experiment: SAHH-coupled fluorescence assay, inhibition of PRMT1; settings: for IC50: read-out: IC50 FOR PRMT1
T1 construct: made in house
Protocol: (§3) A fluorescence-based SAHH-coupled assay was applied to study the inhibition activity of all synthesized compounds on PRMT 1 and 3.
(§4) The PRMT1 methylation assay was performed under the following conditions in a final well volume of 100 μL: 2.5 mM HEPES (pH=7.0), 25 mM NaCl, 25 μM EDTA, 50 μM TCEP, 0.01% Triton X-100, 5 μM SAHH, 0.1 μM PRMT1, 10 μM AdoMet, and 10 μM ThioGlo4. […] The fluorescence signal was monitored on a BMG CLARIOstar microplate reader with excitation at 400 nm and emission at 465 nm for 15 min. Data were processed using GraphPad Prism software 8.0.
as §1
as §4, with “A fluorescence-based SAHH-coupled assay was applied to determine the inhibition activity of all synthesized compounds on PRMT 1 and 3. The PRMT1” for “The PRMT1”, “software 8.0. All experiments were performed in duplicate.” for “software 8.0.”

PRMT4 = target: T2, PRMT4 (Homo sapiens, UniProt Q86X55); experiment: radioactive assay (Reaction Biology Corp.), inhibition of PRMT4
T2 sequence (Q86X55 1-608): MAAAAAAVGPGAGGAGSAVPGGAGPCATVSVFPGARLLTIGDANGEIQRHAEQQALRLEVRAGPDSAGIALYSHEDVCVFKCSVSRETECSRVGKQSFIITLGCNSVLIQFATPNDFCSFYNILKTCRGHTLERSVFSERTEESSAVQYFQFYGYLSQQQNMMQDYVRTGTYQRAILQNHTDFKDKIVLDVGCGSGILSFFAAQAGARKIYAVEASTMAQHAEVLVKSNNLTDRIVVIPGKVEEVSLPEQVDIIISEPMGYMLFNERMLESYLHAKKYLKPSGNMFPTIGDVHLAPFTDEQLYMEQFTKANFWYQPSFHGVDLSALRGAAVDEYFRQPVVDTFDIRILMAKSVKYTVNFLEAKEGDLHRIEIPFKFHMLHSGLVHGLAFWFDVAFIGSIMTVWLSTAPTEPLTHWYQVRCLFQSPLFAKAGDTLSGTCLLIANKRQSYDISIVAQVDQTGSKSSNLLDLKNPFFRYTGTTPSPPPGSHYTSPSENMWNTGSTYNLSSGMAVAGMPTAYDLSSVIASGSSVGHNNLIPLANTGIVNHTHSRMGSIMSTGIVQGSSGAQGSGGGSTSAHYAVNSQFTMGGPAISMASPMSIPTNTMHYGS
Protocol: as §1, §2

PRMT3 = PRMT3 (Homo sapiens, UniProt O60678); experiment: SAHH-coupled fluorescence assay, inhibition of PRMT3; design: PRMT3 (residues 211-531) was cloned into the pET28a-MHL expression vector; tag of the pET28a-MHL vector (not described); made in house; host or cells: Escherichia coli BL21(DE3)
Protocol: as §3
(§5) The PRMT3 methylation assay was performed under the following conditions in a final well volume of 100 μL: 20 mM Tris (pH=7.5), 0.01% Triton X-100, 5 μM SAHH, 0.25 μM PRMT3, 30 μM AdoMet, and 15 μM ThioGlo4. […] Fluorescence was monitored on a BMG CLARIOstar microplate reader with excitation 380 nm and emission 505 nm. Data were processed by using GraphPad Prism software 8.0. All experiments were performed in duplicate.
as §1
as §5, with “8.0.” for “8.0. All experiments were performed in duplicate.”

PRMT8, sequence (Q9NR22 whole entry, species assumed): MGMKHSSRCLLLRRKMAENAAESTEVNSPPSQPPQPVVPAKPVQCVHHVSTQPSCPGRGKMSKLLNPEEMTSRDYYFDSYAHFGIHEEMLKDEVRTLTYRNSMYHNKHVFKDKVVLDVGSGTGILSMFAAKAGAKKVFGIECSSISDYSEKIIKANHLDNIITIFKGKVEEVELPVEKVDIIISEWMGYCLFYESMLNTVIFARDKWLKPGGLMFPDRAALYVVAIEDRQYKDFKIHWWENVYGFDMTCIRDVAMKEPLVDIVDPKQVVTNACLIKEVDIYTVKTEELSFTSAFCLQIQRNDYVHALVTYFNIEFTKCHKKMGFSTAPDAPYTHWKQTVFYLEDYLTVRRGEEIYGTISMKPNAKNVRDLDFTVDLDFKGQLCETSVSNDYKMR
PRMT6, sequence (Q96LA8 whole entry, species assumed): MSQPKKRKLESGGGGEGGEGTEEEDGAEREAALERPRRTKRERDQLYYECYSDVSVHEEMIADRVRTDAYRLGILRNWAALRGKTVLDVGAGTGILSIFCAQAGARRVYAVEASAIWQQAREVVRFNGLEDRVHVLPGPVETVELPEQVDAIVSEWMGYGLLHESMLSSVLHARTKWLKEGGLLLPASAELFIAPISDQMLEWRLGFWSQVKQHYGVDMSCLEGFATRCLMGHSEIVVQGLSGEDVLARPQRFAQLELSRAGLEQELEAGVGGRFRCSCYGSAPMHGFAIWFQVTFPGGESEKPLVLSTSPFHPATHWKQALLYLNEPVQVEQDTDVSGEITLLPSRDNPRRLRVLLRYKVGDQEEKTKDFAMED
T1 sequence (Q99873 whole entry, species assumed): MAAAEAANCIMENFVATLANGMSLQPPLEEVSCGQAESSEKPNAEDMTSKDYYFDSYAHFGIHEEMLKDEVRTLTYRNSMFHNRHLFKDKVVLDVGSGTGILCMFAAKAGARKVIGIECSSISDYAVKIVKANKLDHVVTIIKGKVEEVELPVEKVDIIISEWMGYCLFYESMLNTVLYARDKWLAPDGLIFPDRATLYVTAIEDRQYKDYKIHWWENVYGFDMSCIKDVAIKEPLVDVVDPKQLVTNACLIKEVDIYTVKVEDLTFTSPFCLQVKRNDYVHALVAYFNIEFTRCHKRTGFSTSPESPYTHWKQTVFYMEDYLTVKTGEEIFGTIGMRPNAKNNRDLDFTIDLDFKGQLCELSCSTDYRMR
PRMT3, sequence (O60678 211-531): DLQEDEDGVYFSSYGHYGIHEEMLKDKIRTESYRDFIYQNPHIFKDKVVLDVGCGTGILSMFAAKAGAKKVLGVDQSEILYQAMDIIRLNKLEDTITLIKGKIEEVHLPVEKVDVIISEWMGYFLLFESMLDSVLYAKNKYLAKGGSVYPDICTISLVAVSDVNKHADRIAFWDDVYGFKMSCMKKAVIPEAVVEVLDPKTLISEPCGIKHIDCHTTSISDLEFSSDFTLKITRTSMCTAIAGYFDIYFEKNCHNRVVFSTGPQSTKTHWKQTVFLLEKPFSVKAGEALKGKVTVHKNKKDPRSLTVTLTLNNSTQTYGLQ

Compound	inhibition at 10 µM (PRMT8) [%]	inhibition at 10 µM (PRMT6) [%]	PRMT6 inhibition (PRMT6; 10 μM)	inhibition at 10 µM (PRMT1) [%]	inhibition at 10 µM (PRMT4) [%]	inhibition at 10 µM (PRMT3) [%]	IC50 (PRMT1) [nM]
COc1cc2nc(-c3ccc(O)cc3)nc(NCCSC[C@H]3O[C@@H](n4cnc5c(N)ncnc54)[C@H](O)[C@@H]3O)c2cc1OC [Compound 12b]	22	91	selective inhibition to PRMT6	2	-4	13	
COc1cc2nc(-c3cccc(F)c3)nc(NCCSC[C@H]3O[C@@H](n4cnc5c(N)ncnc54)[C@H](O)[C@@H]3O)c2cc1OC [Compound 12c]	35	43		15	62	15	
COc1cc2nc(-c3ccoc3)nc(NCCSC[C@H]3O[C@@H](n4cnc5c(N)ncnc54)[C@H](O)[C@@H]3O)c2cc1OC [Compound 12d]	25	16		2	1	10	
COc1cc2nc(-c3ccc(C(F)(F)F)cc3)nc(NCCSC[C@H]3O[C@@H](n4cnc5c(N)ncnc54)[C@H](O)[C@@H]3O)c2cc1OC [Compound 12e]	37	19		3	43	5	
COc1cc2nc(-c3ccc(F)c(O)c3)nc(NCCSC[C@H]3O[C@@H](n4cnc5c(N)ncnc54)[C@H](O)[C@@H]3O)c2cc1OC [Compound 12f]	21	16		12	51	9	
COc1cc2nc(-c3cccc(O)c3)nc(NCCSC[C@H]3O[C@@H](n4cnc5c(N)ncnc54)[C@H](O)[C@@H]3O)c2cc1OC [Compound 12g]	25	13		2	10	4	
COc1cc2nc(-c3ccccc3O)nc(NCCSC[C@H]3O[C@@H](n4cnc5c(N)ncnc54)[C@H](O)[C@@H]3O)c2cc1OC [Compound 12h]	18	16		1	36	12	
COc1cc2nc(-c3ccc(N)cc3)nc(NCCSC[C@H]3O[C@@H](n4cnc5c(N)ncnc54)[C@H](O)[C@@H]3O)c2cc1OC [Compound 12j]	21	8		12	1	13	
Nc1ncnc2c1ncn2[C@@H]1O[C@H](CSCCOc2ccc(-c3ccc(Cl)cc3)cc2)[C@@H](O)[C@H]1O [Compound 14a]	38	-4		2	47	9	
Nc1ncnc2c1ncn2[C@@H]1O[C@H](CSCCOc2ccc(-c3ccc(O)cc3)cc2)[C@@H](O)[C@H]1O [Compound 14b]	20	20		8	13	6	
Nc1ncnc2c1ncn2[C@@H]1O[C@H](CSCCOc2ccc(-c3ccoc3)cc2)[C@@H](O)[C@H]1O [Compound 14c]	39	3		3	17	6	
Nc1ncnc2c1ncn2[C@@H]1O[C@H](CSCCOc2ccc(-c3ccc(F)c(O)c3)cc2)[C@@H](O)[C@H]1O [Compound 14d]	42	18		16	51	3	
Nc1ncnc2c1ncn2[C@@H]1O[C@H](CSCCOc2ccc(-c3cncnc3)cc2)[C@@H](O)[C@H]1O [Compound 14e]	28	7		7	22	16	
Nc1ncnc2c1ncn2[C@@H]1O[C@H](CSCCOc2ccc(-c3cccc(O)c3)cc2)[C@@H](O)[C@H]1O [Compound 14f]	40	13		5	62	5	
Nc1ncnc2c1ncn2[C@@H]1O[C@H](CSCCOc2ccc(-c3ccccc3O)cc2)[C@@H](O)[C@H]1O [Compound 14g]	39	10		5	35	5	
Nc1ncnc2c1ncn2[C@@H]1O[C@H](CSCCOc2ccc(-c3ccncc3)cc2)[C@@H](O)[C@H]1O [Compound 14h]	15	6		10	48	8	
CCCCNC(=N)NCCCSC[C@H]1O[C@@H](n2cnc3c(NCCCc4ccccc4)ncnc32)[C@H](O)[C@@H]1O [Compound 19a]	85	84		94	47	14	650 ± 62
N=C(NCCCSC[C@H]1O[C@@H](n2cnc3c(NCCCc4ccccc4)ncnc32)[C@H](O)[C@@H]1O)NC1CC1 [Compound 19b]	69	73		86	23	13	1200 ± 52
N=C(NCCCSC[C@H]1O[C@@H](n2cnc3c(NCCCc4ccccc4)ncnc32)[C@H](O)[C@@H]1O)NC1CCC1 [Compound 19c]	91	93		80	50	8	550 ± 51
N=C(NCCCSC[C@H]1O[C@@H](n2cnc3c(NCCCc4ccccc4)ncnc32)[C@H](O)[C@@H]1O)NC1CCCC1 [Compound 19d]	85	91		90	60	8	590 ± 71
N=C(NCCCSC[C@H]1O[C@@H](n2cnc3c(NCCCc4ccccc4)ncnc32)[C@H](O)[C@@H]1O)NC1CCCCC1 [Compound 19e]	79	88		89	44	10	750 ± 46
N=C(NCCCSC[C@H]1O[C@@H](n2cnc3c(NCCCc4ccccc4)ncnc32)[C@H](O)[C@@H]1O)NCC1CC1 [Compound 19f]	74	88		76	36	3	920 ± 91
